Activity calls are given as the source filed them.
Key:
[1] = target: DNA dC->dU-editing enzyme APOBEC-3A (Homo sapiens, UniProt P31941); assay: Dose Response confirmation of small molecule APOBEC3A DNA Deaminase Inhibitors via a fluorescence-based single-stranded DNA deaminase assay. [Related pubchem assays (depositor defined):AID493011, AID493024]; assay type: functional
[2] = target: DNA dC->dU-editing enzyme APOBEC-3G (Homo sapiens, UniProt Q9HC16); assay type: functional;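 further: Dose-response counterscreen measuring inhibition of APOBEC3G DNA deaminase activity, run while confirming APOBEC3A inhibitors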
Sequence of DNA dC->dU-editing enzyme APOBEC-3G (Q9HC16 whole entry): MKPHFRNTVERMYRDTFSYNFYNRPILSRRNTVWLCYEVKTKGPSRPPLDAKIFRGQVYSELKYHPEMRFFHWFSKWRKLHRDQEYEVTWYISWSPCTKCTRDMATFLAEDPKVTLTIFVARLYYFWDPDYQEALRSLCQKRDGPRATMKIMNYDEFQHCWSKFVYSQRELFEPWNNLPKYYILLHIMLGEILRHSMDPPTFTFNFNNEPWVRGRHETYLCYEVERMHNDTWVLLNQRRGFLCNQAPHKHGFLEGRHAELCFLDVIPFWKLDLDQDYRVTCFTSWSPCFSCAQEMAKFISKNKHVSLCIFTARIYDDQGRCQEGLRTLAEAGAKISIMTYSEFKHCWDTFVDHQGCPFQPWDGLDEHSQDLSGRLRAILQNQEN

P388/ADR = assay: cells; assay type: functional; conditions: Mus musculus
SN12K1 = assay: cells; assay type: functional; conditions: Homo sapiens
P388 = assay: cells; assay type: functional; conditions: Mus musculus
[3] = target: T1, Heat shock factor protein 1 (Mus musculus, UniProt P38532); assay: enhancement of HSF1-driven luciferase signal – cell-based, NIH3T3, luminescence, dose retest, confirmation (AID 435004); assay type: functional;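 further: stress induced by proteasome inhibitor MG132 added 30 min after compound; luciferase reporter driven by HSF1 response element in NIH3T3 cells; actives raise luminescence as potentiators of the MG132 stress response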
T1 sequence (P38532 whole entry): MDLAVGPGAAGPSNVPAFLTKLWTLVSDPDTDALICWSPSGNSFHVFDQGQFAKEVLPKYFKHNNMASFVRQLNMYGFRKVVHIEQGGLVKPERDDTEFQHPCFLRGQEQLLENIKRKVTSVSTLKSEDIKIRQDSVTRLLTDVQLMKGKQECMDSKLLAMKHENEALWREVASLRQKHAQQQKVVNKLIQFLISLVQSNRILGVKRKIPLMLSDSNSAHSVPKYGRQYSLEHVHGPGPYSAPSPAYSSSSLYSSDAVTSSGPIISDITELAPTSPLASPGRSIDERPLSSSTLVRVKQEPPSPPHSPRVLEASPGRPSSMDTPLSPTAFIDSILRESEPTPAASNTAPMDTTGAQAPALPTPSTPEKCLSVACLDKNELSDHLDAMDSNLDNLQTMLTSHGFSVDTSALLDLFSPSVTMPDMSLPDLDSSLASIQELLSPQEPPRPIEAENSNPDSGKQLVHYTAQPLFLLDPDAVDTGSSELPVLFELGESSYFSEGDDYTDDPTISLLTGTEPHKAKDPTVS

Vero = assay: cells; assay type: functional; conditions: Chlorocebus sabaeus
[4] = target: T2, RNA-binding protein pos-1 (Caenorhabditis elegans, UniProt G5EF15); assay: disruptors of C. elegans POS-1 RNA interaction – biochemical, fluorescence polarization, dose response (AID 1964);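 further: purified POS-1 fused to maltose binding protein made in E. coli; potency of compounds blocking POS-1 binding to fluorescent RNA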
T2 sequence (G5EF15 whole entry): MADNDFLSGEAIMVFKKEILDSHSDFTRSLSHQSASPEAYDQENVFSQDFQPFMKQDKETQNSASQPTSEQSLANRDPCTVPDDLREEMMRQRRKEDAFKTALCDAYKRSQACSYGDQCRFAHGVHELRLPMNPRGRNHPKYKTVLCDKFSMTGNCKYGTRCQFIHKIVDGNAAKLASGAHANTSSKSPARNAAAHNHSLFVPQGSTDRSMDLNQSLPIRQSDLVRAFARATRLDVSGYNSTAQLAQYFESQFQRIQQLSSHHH

[5] = target: T3, Zinc finger protein mex-5 (Caenorhabditis elegans, UniProt Q9XUB2); assay: potency of MEX-5 RNA-binding blockers – biochemical, C. elegans, fluorescence polarization, dose response (AID 1960)
T3 sequence (Q9XUB2 whole entry): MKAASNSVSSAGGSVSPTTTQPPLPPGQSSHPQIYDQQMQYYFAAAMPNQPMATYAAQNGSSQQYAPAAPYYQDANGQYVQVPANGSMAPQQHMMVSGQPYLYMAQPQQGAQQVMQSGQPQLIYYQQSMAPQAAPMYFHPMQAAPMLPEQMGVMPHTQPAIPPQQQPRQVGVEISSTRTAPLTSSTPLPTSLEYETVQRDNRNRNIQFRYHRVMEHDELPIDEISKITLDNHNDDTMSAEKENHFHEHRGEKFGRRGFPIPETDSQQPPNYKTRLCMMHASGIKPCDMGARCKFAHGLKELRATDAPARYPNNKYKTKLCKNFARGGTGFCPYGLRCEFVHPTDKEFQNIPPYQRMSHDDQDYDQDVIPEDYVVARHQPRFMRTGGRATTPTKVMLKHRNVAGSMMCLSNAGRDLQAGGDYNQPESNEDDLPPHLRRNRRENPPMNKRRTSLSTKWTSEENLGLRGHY

BJ [6] = assay: BJ-TERT fibroblast viability loss – cell-based, RAS-independent, luminescence, dose response (AID 1933); assay type: functional; conditions: Homo sapiens
BJ [7] = assay: cells; assay type: functional, cell-based; conditions: Homo sapiens
BJ [8] = assay: BJ-TERT-LT-ST fibroblast viability loss – cell-based, RAS-independent, luminescence, dose response (AID 1935); assay type: functional; conditions: Homo sapiens;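 further: BJ fibroblasts immortalized with TERT plus LT and ST oncogenes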
[9] = DRD fibroblast viability loss – cell-based, non-viral oncogenic, luminescence, dose response (AID 1934); assay type: functional; conditions: Homo sapiens
[10] = target: T4, Probable nicotinate-nucleotide adenylyltransferase (Staphylococcus aureus (strain N315), UniProt P65502); assay type: functional, Staphylococcus aureus subsp. aureus N315;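 on IC50 Mean: confirmatory dose-response retesting of NadD inhibitor hits first found in an ultra-high-throughput screen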
T4 sequence (P65502 whole entry): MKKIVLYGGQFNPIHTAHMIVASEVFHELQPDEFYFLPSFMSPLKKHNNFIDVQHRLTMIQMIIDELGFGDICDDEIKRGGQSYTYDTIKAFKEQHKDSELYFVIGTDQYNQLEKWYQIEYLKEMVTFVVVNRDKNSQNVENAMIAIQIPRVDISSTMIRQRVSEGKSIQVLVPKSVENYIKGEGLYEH

[11] = target: T4, Probable nicotinate-nucleotide adenylyltransferase; assay type: functional, Staphylococcus aureus subsp. aureus N315; conditions: read-out: IC50_Mean
[12] = Luminescence Cell-Based Dose Retest to Confirm Inhibitors of Cancer Stem Cells. [Related pubchem assays (depositor defined):AID2717, AID2721]; assay type: functional; conditions: Homo sapiens
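Wherever AC50 is given: cells exposed to compound for roughly 70 hours or longer before luminescence read.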

Sequence of DNA dC->dU-editing enzyme APOBEC-3A (P31941 whole entry): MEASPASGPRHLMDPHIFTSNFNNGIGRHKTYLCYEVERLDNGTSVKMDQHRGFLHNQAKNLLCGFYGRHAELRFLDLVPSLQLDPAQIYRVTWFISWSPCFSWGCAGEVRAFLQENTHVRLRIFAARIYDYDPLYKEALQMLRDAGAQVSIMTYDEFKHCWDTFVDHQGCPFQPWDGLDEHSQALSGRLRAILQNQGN

CCc1n(CC(O)COCc2ccccc2)c2ccccc2[n+]1C (centres undefined)
IC50 [1]: 2.36 µM (active)
IC50 [2]: 3.14 µM (active)

COc1cc(NCc2ccc3nc(N)nc(N)c3c2C)cc(OC)c1OC
GI50 (P388/ADR): 0.025 µM (active)
GI50 (SN12K1): 0.025 µM (active)
GI50 (P388): 0.025 µM (active)

CC1(C)CC(=O)C2=C(C1)N1C(=C(C#N)C2c2ccc(Cl)cc2)N=C(N)c2ccccc21 (centres undefined)
EC50 [3]: > 260 µM (inactive)
CC50 (Vero): > 25 µM (active)

CCOCCCn1/c(=N/C(=O)c2ccc(OC)c(OC)c2)c(C#N)cc2c(=O)n3cccc(C)c3nc21
EC50 [4]: 26.8 µM (active)
EC50 [5]: 35.4 µM (active)

C[C@@H]1C[C@]2(C[C@@H](C)[C@H]3C(C[C@@]4(C)CCC[C@@H]5C6=C[C@H](CCC34C)OC6=CC(=O)OC5(C)C)O2)OC1=O (some centres undefined)
GI50 (P388/ADR): > 51.5 µM (inactive)
GI50 (SN12K1): > 51.5 µM (inactive)
GI50 (P388): > 51.5 µM (inactive)

Cc1cc2ccccn2c1C(=O)c1ccc(Cl)c([N+](=O)[O-])c1
EC50 (BJ [6]): > 150 µM (not active)
EC50 (BJ [7]): > 150 µM (not active)
EC50 (BJ [8]): > 150 µM (inconclusive)
EC50 [9]: > 150 µM (not active)

CCCc1n(CC(O)COCc2ccccc2)c2ccccc2[n+]1C (centres undefined)
IC50 [1]: 3.16 µM (active)
IC50 [2]: 4.55 µM (active)

O=S(=O)(NC(=Nc1ccc(Cl)c(S(=O)(=O)Nc2ccccc2Cl)c1)c1ccc(F)cc1)c1ccccc1
IC50 [10]: 13.7 µM (active)
IC50 [11]: 80 µM (inactive)

Cc1cc(C=C2C(=O)NC(=O)NC2=O)c(C)n1-c1cccnc1
EC50 [4]: 64.3 µM (active)
EC50 [5]: 36.7 µM (inconclusive)

NS(=O)(=O)c1cc(C(=O)OCC(=O)Nc2ccc3[nH]c(O)nc3c2)ccc1Cl
IC50 [1]: 10.4 µM (active)
IC50 [2]: 8.99 µM (active)

CCSc1nnc(NC(=O)NC(CC)(C(F)(F)F)C(F)(F)F)s1
AC50 [12]: 7.03 µM (active)
CC50 (Vero): 16.5 µM (active)

CCCCCCCCCC[S+]([O-])CC(CO)NC(=O)/C=C/c1c(C)nc(O)nc1O (centres undefined)
GI50 (P388/ADR): 2.25 µM (inactive)
GI50 (SN12K1): 0.612 µM (active)
GI50 (P388): 0.0443 µM (active)
